In publication doi:10.1101/2020.07.20.212142v1 (bioRxiv, 2020):

Legend:
NIH 3T3 cells = test: NIH 3T3 peptide permeation by live-cell confocal microscopy; type: cell-based, mouse; conditions: live NIH 3T3 cells; 5 µM TAMRA-labeled peptide, Opti-mem + 2% FBS, 3 hours, 37°C
[1] = system: dechorionated Drosophila melanogaster hosts; type: in vivo; conditions: dechorionated-only hosts; 20 µM peptide overnight, room temperature

| Substance | permeation by confocal fluorescence microscopy (NIH 3T3 cells) | partial loss of viability observed (in words) [1] |
| --- | --- | --- |
| cyclo[Glut-MRKRHASRRE-K*]-K(5-TAMRA) (sidechain bridge or staple) | substantially greater permeation | – |
| TAMRA-GEGEGEG | no permeation was detected | – |
| TAMRA-RRRRRRRRR | spare punctuate fluorescence | sole exception |
| TAMRA-MRKRHASRREK | spare punctuate fluorescence | – |
